# Results reported in US12295973B2 (Fred Hutchinson Cancer Center, priority 2017, dated 2025).
# Test system: mice exposed to L-TBI
# Experiment: Mouse survival after lethal total body irradiation (L-TBI, 840cGy)
# Format: in vivo
# Settings: MDV3100 24 h after L-TBI, alone
# Source text: Description. Inhibition of sex steroids, which can be achieved in a reversible fashion pharmacologically, is a well-described strategy to promote lymphopoiesis in the BM and thymus^8,7,14,15. Although the most common method of sex steroid ablation clinically has been to use LHRH-agonists, it was described that an LHRH-Antagonist represents a more rational approach to promote immediate ablation of sex steroids for immune regeneration as it is far more rapid and abrogates the initial surge in sex steroids that LHRH-Agonist cause^16. Taken together with the impact of sex steroid inhibition on HSC function and the rapid regenerative effects of LHRH-Ant, it was hypothesized that LHRH-Ant could represent a rational non-cellular medical countermeasure for mitigating radiation injury and promoting hematopoietic regeneration when administered after hematopoietic insult. […] It was then tested if LHRH-Ant could mediate even greater mouse survival when administered multiple times.
# Methods. […] B6.SJL-Ptprca Pepcb/BoyJ (CD45.1) male mice (The Jackson Laboratory) were used between 7 and 12 weeks of age for transplant. Mice were irradiated with a Gammacell 40 Irradiator (Cs-137), with an average dose rate of 95 cGy/min, in a plexiglass mouse pie cage. To assess mouse survival after radiation, mice were monitored for up to 60 days after TBI. To adjust for differences in weight, identical mice were purchased from Jackson and cages randomly distributed over different groups. All animal protocols were approved by the Memorial Sloan Kettering Cancer Center Institutional Animal Care and Use Committee.
# Reagents: Degarelix (as acetate), a LHRH-Ant (Firmagon), was resuspended in sterile water for injection and administered S.C. to mice at a dose of 40 mg/kg. To evaluate the radiomitigative effect of LHRH-Ant on survival, mice were treated subcutaneously (S.C.) with a single injection of the LHRH-Ant or a saline control solution (PBS). Degarelix was purchased from the Memorial Sloan-Kettering Cancer Center Pharmacy. […] MDV3100 (selleckchem) was resuspended in a mixture of 45% PBS, 45% PEG and 10% DMSO and administered daily to mice by oral gavage at a dose of 10 mg/kg. 5-FU (InvivoGen) was administered to mice intraperitoneally (I.P.) at a dose of 150 mg/kg once every 7 days consecutively for 3 times as previously described^34,47,49.
smiles,measurement,value
"CNC(=O)c1ccc(N2C(=S)N(c3ccc(C#N)c(C(F)(F)F)c3)C(=O)C2(C)C)cc1F [MDV3100, enzalutamide]",survival after L-TBI,did not mediate any survival benefit
